21 compounds from patent US11866405B2, “Substituted indazoles as IRAK4 inhibitors” (AstraZeneca AB, priority 2020, dated 2024) can be followed below.

The target of test [1] is human recombinant IRAK4 protein (Homo sapiens (Human), UniProt Q9NWZ3). The test can be described thus: IRAK4 enzyme assay (mass spectrometry readout). The test is classed as biochemical. The note with it: 3 mM ATP, 0.2 nM enzyme; geometric mean of at least n=2, * single experiment. The gist of the method:
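0.2 nM IRAK4 preincubated 15 min at room temperature with compound (10-point half-log series, top 1 μM or 10 μM) in pH 7.4 Tris buffer with 3 mM ATP; 10 μM peptide substrate added, 2 h at room temperature, formic acid stop. Phospho/unphospho peptide ratio by LC-MS/MS; potency from curve fit, geometric mean of n≥2 or single run.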

Test [2] relates to IL-1β stimulated IL-8 release in hTHP1 cells. The test can be described thus: IL-1β-induced IL-8 release in human THP-1 monocyte cell line. The test is classed as cell-based. The note with it: THP-1 cells, IL-1β 1.8 ng/mL. The method, then: Effect of IRAK4 Inhibitors on IL-1β-Induced Cytokine Release in Human THP-1 Monocyte Cell Line
THP-1 cells were cultured in RPMI 1640 (Gibco 72400-021) containing 10% FBS (Gibco 10270-106), 1 mM Na-pyruvate (Gibco 11360-070) and 100 U/mL Penicillin-Streptomycin (Gibco 15140-122). Cells were plated at 5×10^4 cells per well in 384 well Echo certified plates (Labcyte PPT-0200) to which compounds had been added at various concentrations (10 point half log dose response with a final top concentration of 10 μM) using an Echo 655 (Labcyte Inc). The plate was incubated for 1 h at 37° C., then recombinant […] (R&D Systems 201-LB-025/CF) was added to a final concentration of 1.8 ng/mL. The plates were incubated at 37° C. for 18h. The plates were centrifuged at 250×g for four minutes, then 1.6 μL of the cell supernatant was transferred to a white low volume 384 well plate (Greiner #784075) using acoustic dispensing on an Echo 655. Next, 200 nL of acceptor bead (5 mg/mL) and biotinylated anti-IL-8 antibody (500 nM) was added using acoustic dispensing (beads and antibody were from a PerkinElmer 18 Alpha LISA detection kit, AL224C). The plate was sealed, briefly centrifuged, then incubated at room temperature for 1 h. Afterwards, 200 nL of donor bead solution (5 mg/mL) was added, the plate sealed and briefly centrifuged, then incubated for 1 h before being read on an Envision plate reader to allow determination the concentration of IRAK4 inhibitor required to effect a 50% reduction in the amount of IL-8 released following IL-1β stimulation in THP1 cells (Table 2). The quantified data were analysed in Genedata Screener 15 (Genedata AG). Data presented are the geometric mean of at least n=2, or as denoted by an * are obtained from a single experiment.

Test [3] has as its target IRAK4 auto-phosphorylation (Homo sapiens (Human), UniProt Q9NWZ3). Kind of test: IRAK4 phosphorylation cell assay in IL-1β-stimulated Karpas-299 cells. The test is classed as cell-based. The note with it: IL-1β 22.7 ng/mL, pIRAK4 (Thr345/Ser346), geometric mean of at least 2 experiments. In a few lines:
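Karpas-299 cells were preincubated 1 h at 37 °C with compound (10-point half-log series, top 30 μM), then stimulated 10 min with 22.7 ng/mL IL-1β. Cells were fixed and stained for pIRAK4 (Thr345/Ser346), and per-cell fluorescence was quantified by high-content imaging. IC50 values are geometric means of at least 2 experiments.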

Where [4] appears, read: 18 h, geometric mean of at least n=2, * n = 1, read-out: hTHP1, IL1β stim, IL8 release red. IC50.
Where [5] appears, read: Homo sapiens, THP-1, 18 h, geometric mean of at least n=2, * n = 1, read-out: hTHP1, IL1β stim, IL8 release red. IC50.

Where two headings read alike, the source gives them in different places.

Chain of IRAK4 auto-phosphorylation (Q9NWZ3 whole entry): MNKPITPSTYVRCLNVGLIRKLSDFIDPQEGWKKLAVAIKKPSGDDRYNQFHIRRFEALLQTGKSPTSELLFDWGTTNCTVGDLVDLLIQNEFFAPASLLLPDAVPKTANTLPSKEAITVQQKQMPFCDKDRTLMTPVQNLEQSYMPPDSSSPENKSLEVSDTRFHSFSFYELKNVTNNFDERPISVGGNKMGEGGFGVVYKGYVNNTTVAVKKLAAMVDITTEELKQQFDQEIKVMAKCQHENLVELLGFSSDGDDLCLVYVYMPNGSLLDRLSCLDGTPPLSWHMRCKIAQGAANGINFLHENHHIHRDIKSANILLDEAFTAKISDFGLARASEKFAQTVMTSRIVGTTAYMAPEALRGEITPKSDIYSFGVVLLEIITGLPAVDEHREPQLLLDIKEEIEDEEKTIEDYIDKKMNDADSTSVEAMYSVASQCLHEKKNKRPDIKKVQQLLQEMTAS
Chain of human recombinant IRAK4 protein (Q9NWZ3 whole entry): as above

Consider “2-((1r,4r)-4-(cyclopropanecarboxamido)cyclohexyl)-6-methoxy-N-(pyrazolo[1,5-a]pyrimidin-3-yl)-2H-indazole-5-carboxamide [Example 26]”, for which the results for the IC50 in test [1], in test [2] (setting [4]) and in test [3] were 1.6 nM, 25 nM and 26 nM, respectively.
With “6-Cyclopropoxy-2-((1r,4r)-4-(N-methylacetamido)cyclohexyl)-N-(pyrazolo[1,5-a]pyrimidin-3-yl)-2H-indazole-5-carboxamide [Example 33]”, the IC50 worked out at 1 nM in test [1], 30 nM in test [2] (setting [4]) and 45 nM in test [3].
Turning to `COc1cc2nn(C3CCC4(CC3)CC(C)(O)C4)cc2cc1C(=O)Nc1cnc2cccnn12` (single isomer, unassigned) [Example 5, 2-(2-Hydroxy-2-methylspiro[3.5]nonan-7-yl)-N-(imidazo[1,2-b]pyridazin-3-yl)-6-methoxy-2H-indazole-5-carboxamide], the figures for the IC50 in test [1], in test [2] (setting [5]) and in test [3] were 0.5 nM, 16 nM and 31 nM, respectively.
`COc1cc2nn([C@H]3CCC[C@@H](O)C3)cc2cc1C(=O)Nc1cnc2cccnn12` (single isomer, unassigned) [Example 10]: the IC50 in test [1] stood at 1.2 nM; in test [2] (setting [5]), 14 nM; in test [3], 19 nM.
For `COc1cc2nn([C@H]3CCC[C@@H](O)C3)cc2cc1C(=O)Nc1cnn2cccnc12` (single isomer, unassigned) [Example 13], the IC50 in test [1] came out at 6.5 nM; in test [2] (setting [5]) it was 59 nM; in test [3] it was 816 nM.
As for `COc1cc2nn([C@H]3CCC[C@@H](O)C3)cc2cc1C(=O)Nc1cnn2cccnc12` (single isomer, unassigned) [Example 14], the IC50 in test [1] was 17.7 nM; in test [2] (setting [4]) it was 38 nM; in test [3], 171 nM.
Regarding `COc1cc2nn([C@@H]3CC[C@H](O)C[C@H]3C)cc2cc1C(=O)Nc1cnc2cccnn12` [Example 88, 2-((1R,2R,4S)-4-hydroxy-2-methylcyclohexyl)-N-(imidazo[1,2-b]pyridazin-3-yl)-6-methoxy-2H-indazole-5-carboxamide], the figures for the IC50 in test [1] and in test [3] were 1.3 nM and 44 nM, respectively.
Consider `COc1cc2nn([C@H]3CC[C@@H](O)C[C@@H]3C)cc2cc1C(=O)Nc1cnc2cccnn12` [Example 90, 2-((1S,2S,4R)-4-hydroxy-2-methylcyclohexyl)-N-(imidazo[1,2-b]pyridazin-3-yl)-6-methoxy-2H-indazole-5-carboxamide], for which the figures for the half-maximal inhibitory concentration (IC50) in test [1] and in test [3] were 5.2 nM and 101 nM, respectively.
`COc1cc2nn([C@H]3CC[C@H](N(C)C(=O)[C@@H](C)O)CC3)cc2cc1C(=O)Nc1cnc2cccnn12` [Example 95, 2-((1R,4r)-4-((R)-2-Hydroxy-N-methylpropanamido)cyclohexyl)-N-(imidazo[1,2-b]pyridazin-3-yl)-6-methoxy-2H-indazole-5-carboxamide]: the IC50 in test [1] was 0.2 nM; in test [3], 7 nM.
The matching figures for `COc1cc2nn([C@H]3CC[C@H](N(C)C(=O)C4CC4)CC3)cc2cc1C(=O)Nc1cnn2cnccc12` [Example 96, 6-Methoxy-2-((1r,4r)-4-(N-methylcyclopropanecarboxamido)cyclohexyl)-N-(pyrazolo[1,5-c]pyrimidin-3-yl)-2H-indazole-5-carboxamide]: 0.5 nM and 15 nM.
Turning to `COc1cc2nn(C3CCC(N(C)C(=O)[C@H]4C[C@H](O)C4)CC3)cc2cc1C(=O)Nc1cnn2cccnc12` (stereo partly drawn) [Example 97, 2-((1R,4r)-4-((1r,3R)-3-hydroxy-N-methylcyclobutane-1-carboxamido)cyclohexyl)-6-methoxy-N-(pyrazolo[1,5-a]pyrimidin-3-yl)-2H-indazole-5-carboxamide], the IC50 in test [1] was 0.7 nM; in test [3] it was 15 nM.
With `COc1cc2nn(C3CCC(N(C)C(=O)C4CC(O)C4)CC3)cc2cc1C(=O)Nc1cnn2cnccc12` [Example 98, 2-((1R,4r)-4-((1s,3S)-3-hydroxy-N-methylcyclobutane-1-carboxamido)cyclohexyl)-6-methoxy-N-(pyrazolo[1,5-c]pyrimidin-3-yl)-2H-indazole-5-carboxamide], the IC50 in test [1] came out at 0.6 nM; in test [3], 20 nM.
Turning to `COc1cc2nn([C@H]3CC[C@H](N(C)C(=O)C(C)(C)O)CC3)cc2cc1C(=O)Nc1cnn2cnccc12` [Example 99, 2-((1r,4r)-4-(2-Hydroxy-N,2-dimethylpropanamido)cyclohexyl)-6-methoxy-N-(pyrazolo[1,5-c]pyrimidin-3-yl)-2H-indazole-5-carboxamide], the concentration for half-maximal inhibition (IC50) in test [1] was found to be 1.2 nM; in test [3], 35 nM.
As for `CO[C@H]1C[C@H](Oc2cc3nn(C4CCC5(CC4)CN(C(C)=O)C5)cc3cc2C(=O)Nc2cnc3cccnn23)C1` [Example 100, 2-(2-Acetyl-2-azaspiro[3.5]nonan-7-yl)-N-(imidazo[1,2-b]pyridazin-3-yl)-6-((1r,3r)-3-methoxycyclobutoxy)-2H-indazole-5-carboxamide], the IC50 in test [1] was under 0.03 nM; in test [3], 6 nM.
Taken in the same sequence, the figures for `CO[C@H]1C[C@@H](Oc2cc3nn(C4CCC5(CC4)CN(C(C)=O)C5)cc3cc2C(=O)Nc2cnc3cccnn23)C1` [Example 101, 2-(2-Acetyl-2-azaspiro[3.5]nonan-7-yl)-N-(imidazo[1,2-b]pyridazin-3-yl)-6-((1s,3s)-3-methoxycyclobutoxy)-2H-indazole-5-carboxamide] were under 0.4 nM and 31 nM.
With `COc1cc2nn([C@H]3CC[C@H](n4ccnn4)CC3)cc2cc1C(=O)Nc1cnc2cccnn12` [Example 102, 2-((1r,4r)-4-(1H-1,2,3-triazol-1-yl)cyclohexyl)-N-(imidazo[1,2-b]pyridazin-3-yl)-6-methoxy-2H-indazole-5-carboxamide], the IC50 in test [1] turned out to be 0.7 nM; in test [3] it was 19 nM.
Turning to `COc1cc2nn([C@H]3CC[C@H](n4nccn4)CC3)cc2cc1C(=O)Nc1cnc2cccnn12` [Example 103, 2-((1r,4r)-4-(2H-1,2,3-triazol-2-yl)cyclohexyl)-N-(imidazo[1,2-b]pyridazin-3-yl)-6-methoxy-2H-indazole-5-carboxamide], the results for the IC50 in test [1] and in test [3] were 0.6 nM and 17 nM, respectively.
As to `COc1cc2nn([C@H]3CC[C@H](N(C)C(=O)C[C@H](C)O)CC3)cc2cc1C(=O)Nc1cnn2cccnc12` [Example 110, 2-((1S,4r)-4-((S)-3-Hydroxy-N-methylbutanamido)cyclohexyl)-6-methoxy-N-(pyrazolo[1,5-a]pyrimidin-3-yl)-2H-indazole-5-carboxamide], the IC50 is 0.9 nM in test [1] and 16 nM in test [3].
In the case of `COc1cc2nn([C@H]3CC[C@H](N(C)C(=O)C[C@@H](C)O)CC3)cc2cc1C(=O)Nc1cnn2cccnc12` [Example 111, 2-((1R,4r)-4-((R)-3-Hydroxy-N-methylbutanamido)cyclohexyl)-6-methoxy-N-(pyrazolo[1,5-a]pyrimidin-3-yl)-2H-indazole-5-carboxamide], the results for the IC50 in test [1] and in test [3] were 0.9 nM and 27 nM, respectively.
As to `COc1cc2nn([C@H]3CC[C@H](N(C)C(=O)N4CC[C@H](O)C4)CC3)cc2cc1C(=O)Nc1cnc2cccnn12` [Example 116, 2-((1S,4r)-4-((S)-3-Hydroxy-N-methylpyrrolidine-1-carboxamido)cyclohexyl)-N-(imidazo[1,2-b]pyridazin-3-yl)-6-methoxy-2H-indazole-5-carboxamide], the concentration for half-maximal inhibition (IC50) in test [1] turned out to be 0.3 nM; in test [3], 13 nM.
Take `COc1cc2nn([C@H]3CC[C@H](N(C)C(=O)N4CC[C@@H](O)C4)CC3)cc2cc1C(=O)Nc1cnc2cccnn12` [Example 117, 2-((1R,4r)-4-((R)-3-Hydroxy-N-methylpyrrolidine-1-carboxamido)cyclohexyl)-N-(imidazo[1,2-b]pyridazin-3-yl)-6-methoxy-2H-indazole-5-carboxamide]: the IC50 in test [1] came out at 0.3 nM; in test [3] it was 22 nM.

In general, IC50 refers to the concentration at which inhibition is half-maximal.
